In patent US20090176776A1, “SMALL MOLECULE INHIBITORS OF HIV-1 CAPSID ASSEMBLY” (UNIVERSITY OF ALABAMA AT BIRMINGHAM, priority 2005, published 2009):

Columns and labels:
HIV-1YU2 = test: Anti-HIV assay (multiple round), luciferase expression in Luc-M7 cells; assay type: cell-based; conditions: Luc-M7 cells infected with HIV-1YU2, 6 days, Bright-Glo
Description: (§1) Anti-HIV Assays (Multiple Round). The inhibitory effects of the tested compounds on HIV-1YU2 replication were determined by the level of luciferase expression after 6 days of infection using Bright-Glo assay (Promega). An amount of 1.5×10^4 Luc-M7 (a gift from Ned Landau) cells per ml were infected with HIV-1YU2 at a multiplicity of infection (MOI) of 3. The HIV-1 infected ([…] compound) or mock-infected (0-300 μM compound) Luc-M7 cells were placed in 96-well culture plates (100 μl/well) with 100 μl of various concentrations of the compounds with 20 μg/ml DEAE Dextran in triplicate and incubated at 37° C. under 5% CO2 at 100% humidity. After 6 days, cell viability was quantified by Cell-Titer Glo assay (Promega). […] On day 5 cell viability was determined in the mock-infected cells. FIGS. 12-18 show the anti-HIV assays for the examples of chemical compounds used according to the invention. After in-vitro assay, the chemical compounds in FIGS. 12-18 were selected for screening for cell viability and toxicity. Jurkat cells assay was used as screening assay. […] After five days, GFP expression was read. Cell viability was monitored with Alamar Blue assay. Luc M7 assay was designed to measure inhibitory activity of the chemical compounds to viral replication. After infection of cells with YU2 virus, plate cells in 96-well plate in the presence of six concentration of compounds in DMSO. At day 6, the number of cells in wells were read with Cell Titer Glo kit or by counting the number of cells infected with Bright Glo kit. 293T cells assay was designed to determine the toxicity. 293T cells were transfected with NL43. After four hours, transfected cells were plated in 96-well plate in DMSO and 2 μM Indinavir. 72 hours later, viral supernatant was collected and plated on J[…].

293T cells = test: Toxicity in 293T cells; assay type: cell-based, human; design: unit not given beside the values
Description: Anti-HIV Assays (Single Round). The inhibitory effect of the compounds on virus production and infectivity were determined by measuring the level of p24 produced in the presence of various concentrations of compounds from HEK-293 cells transiently transfected with pNL43 and by titering the virus on TZM-b1 cells. Briefly, 2.5×10^5 HEK-293 cells/ml were transfected with pNL43 using FuGene 6. Four hours post transfection the cells were plated in 96-well plates containing 100 μl of various concentrations of compounds (0-75 μM or 0-300 μM for mock transfected cells) in triplicate. At 72-hours post transfection virus supernatant was collected and stored at −80° C. until analysis. The level of p24 produced at each compound concentration was determined relative to the level produced in the presence of the DMSO only controls using HIV-1 p24 enzyme-linked immunosorbent assay (ELISA) (Beckman-Coulter). To determine the infectivity of the virus produced TZM-b1 cells were plated at 1×10^5 cells/ml in 100 μL in 96-well plates overnight. The next day, the media was replaced with 75 μL DMEM supplemented with 1% FBS, 1× PSG and 40 μg/ml DEAE Dextran and 25 μL of viral supernatant from the HEK-293 cells was added to each well. Three hours later 100 μL of DMEM with 7% FBS was added to each well. Two days after infection the cells were lysed and the level of luciferase expression was determined using the Bright-Glo assay.
FIGS. 12-18 show the anti-HIV assays for the examples of chemical compounds used according to the invention. After in-vitro assay, the chemical compounds in FIGS. 12-18 were selected for screening for cell viability and toxicity. Jurkat cells assay was used as screening assay. In Jurkat cells assay, JLTRG-R5 cells were used as Indicator cells and MOLT4 cells as Producer cells of NL43 and BAL virus. 96 chemical compounds were plated at seven different concentration from 75 μM to 0 μM at three-fold serial dilutions in 384 well plate. After five days, GFP expression was read. Cell viability was monitored with Alamar Blue assay. Luc M7 assay was designed to measure inhibitory activity of the chemical compounds to viral replication. After infection of cells with YU2 virus, plate cells in 96-well plate in the presence of six concentration of compounds in DMSO. At day 6, the number of cells in wells were read with Cell Titer Glo kit or by counting the number of cells infected with Bright Glo kit. 293T cells assay was designed to determine the toxicity. 293T cells were transfected with NL43. After four hours, transfected cells were plated in 96-well plate in DMSO and 2 μM Indinavir. 72 hours later, viral supernatant was collected and plated on JC53BL. Luciferase expression was measure after two days and p24 analysis was conducted with 1:1000 and 1:2000 dilutions.

Luc-M7 cells = test: Cell viability of Luc-M7 cells (Cell-Titer Glo); assay type: cell-based; design: unit: μM; conditions: mock-infected Luc-M7 cells, 6 days
Description: as §1

Work on `Cc1ncc(C[n+]2csc(CCOC(=O)C3C4CC5CC(C4)CC3C5)c2C)c(N)n1.Cl.[Cl-]` (stereo not drawn) [Compound 26] yielded an IC50 (HIV-1YU2) of 4.57 µM, a TC50% (293T cells) of 193 and a TC50 (Luc-M7 cells) of 70.4.
